The results in this text go back to PubChem BioAssay AID449750 (Broad Institute, 2010).

The source made the active and inactive calls. No rule for the calls is given here.

This test can be described thus: non-covalent RecA intein splicing inhibitors, dose response, biochemical, cell-free, fluorescence, secondary screen (AID 449750).
For `CCOC(=O)c1nn(-c2ccc(OC)cc2)c(=O)c2c(N)scc12`, the AC50 is > 38 µM (inactive).

As for `COc1ccccc1N(C(=O)CCl)c1cn(C(C)=O)c2ccccc12`, the half-maximal activity concentration (AC50) was 2.36 µM.

On to `COc1ccc(OCc2cc(C(=O)N3CCCC(OC)C3)no2)c2ccccc12` (configuration not stated), for which the AC50 is > 38 µM (inactive).

For `COc1ccc(C(=O)/C(=C/c2cccs2)c2nc3ccccc3o2)cc1`, the AC50 was > 38 µM (inactive).

Consider `COc1ccc2[nH]c(CN3CCC(CO)(CCOc4ccccc4)CC3)c(C)c2c1`, for which the AC50 was > 38 µM (inactive).

Take `O=C1c2[nH]nc(-c3ccccc3O)c2C(c2cccc(Cl)c2)N1Cc1ccco1` (configuration not stated): the AC50 is > 38 µM (inactive).

Regarding `COC(=O)CC1(c2cccc3ccccc23)C(=O)c2ccccc2C1=O`, the half-maximal activity concentration (AC50) was 19.1 µM.

`CC1=CC2(O)OCCN(CCO)C2=CC1=O` (configuration not stated): the half-maximal activity concentration (AC50) was 13.5 µM.

As for `CNC(=O)c1nnsc1S(=O)(=O)c1ccc(Cl)cc1`, the AC50 is > 38 µM (inactive).

With `CCOC(=O)C1=C(C)NC(SCc2cc(=O)[nH][nH]2)=C(C#N)C1c1cccs1` (configuration not stated), the AC50 is 4.69 µM.

On to `CCCCC[C@H](O)/C=C/[C@@H]1[C@@H](C/C=C\CCCC(=O)OC)[C@@H](O)C[C@H]1O`, for which the concentration at half-maximal activity (AC50) is 36.5 µM.

With `CCCn1c(=O)[nH]c(=O)c2c1nc(-c1ccc(OC(F)F)c(OC)c1)n2CCOC`, the AC50 was > 38 µM (inactive).

As to `Cc1cc(C)n2nc(CNS(=O)(=O)c3c(F)c(F)c(F)c(F)c3F)nc2n1`, the AC50 is > 38 µM (inactive).

Consider `CC(C)CC1C(C#N)=C(N)Oc2n[nH]c(-c3ccccc3)c21` (configuration not stated), for which the half-maximal activity concentration (AC50) was 23.1 µM.

Regarding `Cc1ccc2nc(/C(C#N)=C\c3ccc([N+](=O)[O-])o3)[nH]c2c1`, the AC50 is > 38 µM (inactive).

For `Cc1ccccc1CS(=O)(=O)c1nnc([C@H](CC(C)C)NC(=O)OC(C)(C)C)o1`, the AC50 was > 38 µM (inactive).

In the case of `Cc1ccc(S(=O)(=O)c2c(N)n(CCC(C)C)c3nc4ccccc4nc23)cc1`, the AC50 is 5.3 µM.

Take `CCOc1cc(CNc2ccc3cn[nH]c3c2)ccc1OC`: the half-maximal activity concentration (AC50) is 12.7 µM.

For the compound `CCOC(=O)N1C(=O)[C@](c2ccc(Cl)cc2)(C(C)C)N1C(=O)OCC`, the concentration at half-maximal activity (AC50) is 1.75 µM.

For `O=Nc1c(O)c2ccccc2c2ccccc12`, the AC50 is 2.68 µM.

Take `COc1cccc(CN2CCN(Cc3ccc(C#CC(C)(C)O)s3)CC2CCO)c1` (configuration not stated): the AC50 was > 38 µM (inactive).

Consider `CCCc1[nH]nc2c1C(c1ccc(OCCN3CCOCC3)c(OCC)c1)C(C#N)=C(N)O2` (configuration not stated), for which the AC50 was > 38 µM (inactive).

On to `CCOC(=O)CSc1nc2sc3c(c2c(=O)n1C1CCCCC1)CCN(C)C3`, for which the AC50 is > 38 µM (inactive).

Take `Oc1ccc(/C=N/Nc2ccc(C(F)(F)F)cn2)c(O)c1`: the AC50 was > 38 µM (inactive).

As for `CCOc1cc(C(c2c(C)[nH][nH]c2=O)c2c(C)[nH][nH]c2=O)ccc1OC(=O)c1cccc([N+](=O)[O-])c1`, the AC50 is 6.48 µM.

As to `COc1ccc(-c2cc(C#N)nc(Cl)n2)cc1`, the AC50 was > 38 µM (inactive).

`COc1cc(Br)c(C2C(C#N)=C(N)Oc3n[nH]c(-c4cccnc4)c32)cc1OC` (configuration not stated): the AC50 is 34.5 µM.

In the case of `O=C1C(=O)c2ccccc2C([O-])=C1[n+]1ccccc1`, the half-maximal activity concentration (AC50) is 28.5 µM.

`Cc1cc2c(N)cccc2nn1`: the AC50 is > 38 µM (inactive).

Regarding `CS(=O)(=O)c1ccc(C(=O)OCC(=O)NC23CC4CC(CC(C4)C2)C3)cc1[N+](=O)[O-]`, the AC50 was > 38 µM (inactive).

For `COCc1[nH]nc2c1C(c1ccccc1F)C(C#N)=C(N)O2` (configuration not stated), the AC50 is > 38 µM (inactive).

Regarding `Cc1ccc(NC(=O)c2nc(S(=O)(=O)Cc3ccccc3)ncc2Cl)cc1`, the AC50 is > 38 µM (inactive).

`CC1=NN(c2ccc(S(=O)(=O)O)cc2Cl)C(=O)C1`: the half-maximal activity concentration (AC50) was 3.66 µM.

Turning to `Cc1ccc(C(=O)C(OC(=O)CN2C(=O)c3ccccc3C2=O)c2ccccc2)cc1C` (configuration not stated), the AC50 was > 38 µM (inactive).

In the case of `O=C(NCCc1ccccc1)C(c1cccs1)N(C(=O)CCl)c1ccc(Cl)cc1` (configuration not stated), the concentration at half-maximal activity (AC50) is 1.03 µM.

`COC(=O)CSc1nc(N)c2c3c(sc2n1)C(c1ccccc1)SC(c1ccccc1)C3` (configuration not stated): the AC50 was > 38 µM (inactive).

Take `Cc1ccc(Cn2ncc(Cl)c(Cl)c2=O)cc1`: the AC50 was 22 µM.

Consider `CCOC(=O)c1nn(-c2ccc(C)cc2)c(=O)c2c(N)scc12`, for which the AC50 was > 38 µM (inactive).

In the case of `N#C/C(=C\c1cc(Cl)c(OCc2ccc(Cl)cc2)c(Cl)c1)C(N)=O`, the half-maximal activity concentration (AC50) is 9.11 µM.

Turning to `CCn1c2ccccc2c2cc(C3C(C#N)=C(N)Oc4n[nH]c(COC)c43)ccc21` (configuration not stated), the AC50 was 8.48 µM.

Take `O=C(CCl)N(C/C=C/c1ccccc1)c1ccc2c(c1)OCCO2`: the half-maximal activity concentration (AC50) is 1.12 µM.

Turning to `CCCCNC(=O)c1c(N)n(Cc2ccc3c(c2)OCO3)c2nc3ccccc3nc12`, the AC50 was 7.9 µM.

`O=C(/C=C/c1ccco1)c1ccc(NC(=O)C23CC4CC(CC(C4)C2)C3)cc1`: the concentration at half-maximal activity (AC50) is 12.9 µM.

On to `O=[N+]([O-])c1cc([N+](=O)[O-])c2cc3ccccc3nc2c1`, for which the AC50 was 7.29 µM.

`O=C1C=C(Nc2ccccc2O)c2ccccc2C1=O`: the AC50 is > 38 µM (inactive).

On to `Cc1ccc(N2C(=O)NC(=O)/C(=C/c3ccc(OC(=O)c4cccs4)cc3)C2=O)cc1`, for which the concentration at half-maximal activity (AC50) was 5.9 µM.

For `Cc1[nH]c2ccccc2c1C(C#N)(C#N)C1C(=O)c2ccccc2C1=O`, the concentration at half-maximal activity (AC50) is 2.58 µM.

In the case of `CS(=O)(=O)C1=NSC2=NC(=O)/C(=C\c3ccc(OC(=O)c4ccco4)cc3)C(=N)N21`, the AC50 is > 38 µM (inactive).

`C/C(CC(=O)Nc1ccccn1)=N\NC(=O)c1ccc(C)cc1`: the AC50 is > 38 µM (inactive).

Consider `O=c1c2ccccc2nc(/C=C/c2cccnc2)n1CCc1ccccc1`, for which the AC50 was 15.9 µM.

As to `CC(C)C[C@H](N)c1nnc(S(=O)(=O)Cc2ccc(F)cc2)o1`, the AC50 is > 38 µM (inactive).

Take `Cc1nc2c(-c3ccc(F)cc3)c(C)[nH]n2c(=O)c1Cl`: the AC50 is > 38 µM (inactive).

As to `C/C(=N\NC(=O)Cc1cc(=O)[nH][nH]1)c1cccc([N+](=O)[O-])c1`, the concentration at half-maximal activity (AC50) is 30.5 µM.

`Cc1cc(Br)c2c(c1)/C(=C/C(=O)c1cccs1)C(=O)N2`: the AC50 is > 38 µM (inactive).

In the case of `Cn1cnc([N+](=O)[O-])c1S(=O)(=O)c1ccc(Cl)cc1`, the AC50 is > 38 µM (inactive).

Regarding `O=[N+]([O-])c1ccc(N2CCOCC2)c2ccncc12`, the AC50 is > 38 µM (inactive).

As to `O=C(CCl)Nc1cccc(-c2cnc3ccccc3n2)c1`, the AC50 is 16.5 µM.

For `CCCCNC1=CC(=O)C(=O)c2ccccc21`, the concentration at half-maximal activity (AC50) is 7.53 µM.

`O=C(Nc1cccc(OC(=O)c2ccco2)c1)c1ccco1`: the AC50 was > 38 µM (inactive).

As for `Cc1cc(O)c(C(C)C)cc1N=Cc1ccccc1O`, the half-maximal activity concentration (AC50) is 5.1 µM.

As for `CCCc1[nH]nc2c1C(c1ccc(OCCN3CCOCC3)c(OC)c1)C(C#N)=C(N)O2` (configuration not stated), the AC50 was > 38 µM (inactive).

As for `O=C(O)COc1cccc(/C=C2/SC(=S)N(Cc3ccccc3)C2=O)c1`, the concentration at half-maximal activity (AC50) was 21.5 µM.

In the case of `N=c1c2c(ncn1Cc1ccco1)Oc1ccc3ccccc3c1C2c1ccccc1` (configuration not stated), the concentration at half-maximal activity (AC50) was 13.1 µM.

For the compound `COc1ccc(C(CCN(Cc2ccc(OC)c(OC)c2)C(=O)CCl)c2ccccc2)cc1` (configuration not stated), the AC50 is 0.613 µM.

Consider `CCCCCCCCCCn1c2c(c(=N)c3c1CCC3)CCC2`, for which the AC50 is > 38 µM (inactive).

Take `O=C(c1ccc(N2CCN(CCO)CC2)nc1)N1CCOCC1`: the AC50 was > 38 µM (inactive).

Turning to `COCCN(C(=O)CCl)C(C(=O)NC1CCCCC1)c1ccccc1C` (configuration not stated), the half-maximal activity concentration (AC50) was 8.09 µM.

As to `Cc1ccc(-c2nnc(Sc3nc4ccccc4o3)c3ccccc23)cc1`, the concentration at half-maximal activity (AC50) was 4.13 µM.

As for `O=C(CCl)N1N=C(c2cccs2)CC1c1ccco1` (configuration not stated), the AC50 is 5.44 µM.

With `N#CC(C#N)C(c1ccsc1)c1c(-c2ccccc2)[nH][nH]c1=O` (configuration not stated), the AC50 was 37.8 µM.

As for `O=C(CCl)N=c1sccn1Cc1ccc(Cl)cc1Cl`, the AC50 is 5.88 µM.

Consider `CCCCOc1ccc(C2C3CN(C(=O)OCC)CC=C3C(C#N)=C(N)C2(C#N)C#N)cc1OC` (configuration not stated), for which the AC50 was > 38 µM (inactive).

On to `O=C(NC1CCCC1)C(c1ccc(F)cc1)N(Cc1ccc(F)cc1)C(=O)CCl` (configuration not stated), for which the AC50 was 2.96 µM.

For `CCCCCCCCCCOC(=O)Cn1c(COc2ccc(C)cc2)[n+](C)c2ccccc21`, the AC50 is 8.88 µM.

Take `Cn1c(=O)c([N+](=O)[O-])c(Cl)c2ccccc21`: the AC50 is > 38 µM (inactive).

In the case of `O=c1[nH]c(Nc2ccccc2)cc2cc(Br)ccc12`, the AC50 was 7 µM.

In the case of `Cc1ccc(/C=C2\SC(N3CCN(C(c4ccccc4)c4ccccc4)CC3)=NC2=O)o1`, the concentration at half-maximal activity (AC50) is 4.48 µM.

With `COc1ccc(N(C(=O)COc2cccc(C)c2)S(=O)(=O)c2ccc(C)cc2)cc1`, the AC50 was > 38 µM (inactive).

In the case of `CCOC(=O)C1=C(c2ccccc2)NC(N)=NC1c1ccc(OCc2ccc(Cl)cc2)c(OC)c1` (configuration not stated), the half-maximal activity concentration (AC50) is 10.2 µM.

With `Cc1ccc(NC(=O)C2=C(c3ccccc3)S(=O)(=O)CCS2(=O)=O)cc1`, the AC50 is > 38 µM (inactive).

With `O=C(CCCN1C(=O)/C(=C/c2cccs2)SC1=S)Nc1ccc(O)cc1`, the AC50 was > 38 µM (inactive).

`COc1ccc2nc3cccc(OC)c3nc2c1`: the AC50 was 16.1 µM.

With `C=CCc1cccc(C=Nc2c[nH]c(=O)[nH]c2=O)c1O`, the AC50 was > 38 µM (inactive).

For the compound `CCN(c1ccccc1)c1cc2ccccc2c(=O)[nH]1`, the AC50 was > 38 µM (inactive).

Regarding `COc1cccc(C(=O)O/N=C(\N)c2ccc([N+](=O)[O-])cc2)c1OC`, the AC50 was > 38 µM (inactive).

With `Cc1ccccc1NC1=C/C(=N\S(=O)(=O)c2ccc(C(=O)O)cc2)c2ccccc2C1=O`, the concentration at half-maximal activity (AC50) is 14.7 µM.

Turning to `FC(F)(F)c1ccc2c(c1)N(CCCN1CCN(CCCl)CC1)c1ccccc1S2`, the AC50 was 2.54 µM.

Take `CC1=NN(c2ccc(Cl)cc2)C(=O)C1C(c1cccc(O)c1)c1c(C)[nH]n(-c2ccc(Cl)cc2)c1=O` (configuration not stated): the AC50 is 7.91 µM.

Take `COc1ccc2noc3c2c1C(=O)c1ccccc1-3`: the AC50 was 24.8 µM.

Turning to `COc1cc(/C=C2/C(=O)N(c3cccc(Br)c3)N=C2C)cc(OC)c1O`, the AC50 was 9.46 µM.

Turning to `O=C1N=NC2=C1c1c3ccccc3c(O)n1CC2`, the half-maximal activity concentration (AC50) is 3.03 µM.

As to `C/C(CC(=O)Nc1ccc(F)cc1)=N\NC(=O)COc1ccccc1`, the AC50 was > 38 µM (inactive).
